# Test results: US7785639B2, “Composition for treating cancer cells and preparation method for the same” (Kaohsiung Medical University, priority 2005, dated 2010)
# How the values were obtained:
# Hep G2 = test: MTT cytotoxic testing, Hep G2; format: cell-based; settings: average ± standard deviation (n = 2); for IC50 Hep G2: human liver cancer cell line; for IC50: HepG2, human liver cancer cell line
# Hep 3B = test: MTT cytotoxic testing, Hep 3B; format: cell-based; settings: human liver cancer cell line, average ± standard deviation (n = 2); for IC50: Hep3B
# MCF-7 = test: MTT cytotoxic testing, MCF-7; format: cell-based; settings: average ± standard deviation (n = 2); for IC50 MCF-7: human breast cancer cell line; for IC50: MCF7, human breast cancer cell line
# A549 = test: MTT cytotoxic testing, A549; format: cell-based; settings: average ± standard deviation (n = 2); for IC50 A549: human lung cancer cell line; for IC50: A549, human lung cancer cell line
# MDA-MB-231 = test: MTT cytotoxic testing, MDA-MB-231; format: cell-based; settings: average ± standard deviation (n = 2); for IC50 MDA-MB-231: human breast cancer cell line; for IC50: MDA-MB-231, human breast cancer cell line
# [1] = system: five human cancer cell lines
# MCF-10A [2] = system: MCF-10A
# MCF-10A [3] = test: cells; settings: Homo sapiens, read-out: IC50 MCF-10A
Structure (SMILES),IC50 Hep G2 (Hep G2) [µg/mL],IC50 Hep 3B (Hep 3B) [µg/mL],IC50 MCF-7 (MCF-7),IC50 A549 (A549) [µg/mL],IC50 MDA-MB-231 (MDA-MB-231),cytotoxic activities on cancer cells [1],IC50 (Hep G2) [µg/mL],IC50 (Hep 3B) [µg/mL],IC50 (MCF-7) [µg/mL],IC50 (A549) [µg/mL],IC50 (MDA-MB-231) [µg/mL],cytotoxicity to normal human breast epidermal cells (MCF-10A [2]),IC50 (MCF-10A [3]) [µg/mL]
"O=c1cc(C2(O)C=CC(O)C=C2)oc2cc(O)cc(O)c12 (stereo not drawn) [Compound C, Protoapigenin]",1.60 ± 0.33,20.00 ± 0.58,— (Without the cytotoxical activity in the concentration of 20 μg/ml),18.84 ± 0.60,— (Without the cytotoxical activity in the concentration of 20 μg/ml),good cytotoxic activities,,,,,,,
"COC1(OC)CCC(O)(c2cc(=O)c3c(O)cc(O)cc3o2)CC1 [Compound D, 5,7-dihydroxy-2-(1-hydroxy-4,4-dimethoxy-cyclohexyl)-chromen-4-one]",,,,,,,> 20,> 20,> 20,> 20,> 20,,
"O=C1C=CC(O)(c2cc(=O)c3c(O)cc(O)cc3o2)C=C1 [Compound A, Protoapigenone]",,,,,,good cytotoxic activities,1.6 ± 0.33,0.23 ± 0.01,0.78 ± 0.02,3.88 ± 0.02,0.27 ± 0.02,weak cytotoxicity,7.9 ± 1.3
"COC1CC(=O)C=CC1(O)c1cc(=O)c2c(O)cc(O)cc2o1 (stereo not drawn) [Compound B, 5′,6′-Dihydro-6′-methoxy-protoapigenone]",5.88 ± 0.47,1.74 ± 0.08,5.92 ± 0.29 µg/mL,13.30 ± 0.23,1.30 ± 0.10 µg/mL,good cytotoxic activities,,,,,,,
"COc1cccc2c1C(=O)c1c(O)c3c(c(O)c1C2=O)C[C@@](O)(C(=O)CO)C[C@@H]3O[C@H]1C[C@H](N)[C@H](O)[C@H](C)O1 [Compound E, Doxorubicin, reference compound]",,,,,,,0.15,0.26 ± 0.06,0.32 ± 0.08,0.36 ± 0.04,0.31 ± 0.02,,
